In patent US20210038730A1, “PEPTIDE NANOFIBERS” (UNIVERSITY OF PORTSMOUTH HIGHER EDUCATION CORPORATION, priority 2018, published 2021):

Assays:
U-87 MG cells [1] = test: Cell cycle (propidium iodide flow cytometry); format: cell-based, human
Protocol: (§1) In vitro antitumour effects of TPGnRH and PAX-loaded TPGnRH were assessed in U-87 MG cells, UP-007, UP-029, SEBTA-023 MDA-MD-231 [triple negative (ER^−, PR—, HER2^−) breast cancer cell line] and SK-OV-3 (human ovarian carcinoma with a low expression of GnRH-R). Cells were seeded at 1,400 cells/cm^2 and allowed to attach and grow for 3 days. In experiments with TPGnRH nanofibers alone (to obtain the IC50 value in each cell line), cells were treated with medium supplemented with the peptide solutions in PBS (0.7 to 700 μM) to achieve a final concentration of 0.07 to 70 μM per well. Media was replaced by fresh media every two days for 6 days. […] On day 4, PAX-loaded TPGnRH nanofibers containing 1 nM of PAX and 7 or 35 μM of TPGnRH were added and the effect on cell viability, proliferation, cell cycle, and apoptosis was assessed on day 6. Only for the MDA-MB-231 cells, on day 4, PAX-loaded TPGnRH nanofibers containing 10 nM of PAX and 7 or 35 μM of TPGnRH were added and the effect on cell viability, proliferation, cell cycle, and apoptosis was also assessed on day 6. […] Cell metabolic activity was measured using MTT assay. […] Afterwards, dimethyl sulfoxide (100 μL) was added to the wells to dissolve the formazan crystals and the absorbance was measured at 570 and 690 nm. […] Cells were incubated with BrdU for 24 hours before the end of the pre-determined time-points. […]

[2] = Enzymatic stability in rat liver homogenates; conditions: 50% (v/v) rat liver homogenates
Protocol: Fresh blood, obtained from adult male Wistar rats, was collected in sterile the 170 I.U. lithium heparin-coated tubes (Vacutainer, BD Bioscience, UK). Blood was centrifuged immediately at 2,000 g for 15 minutes (4° C.) and supernatant was collected and diluted to 50% (v/v) with PBS. Livers and brains were obtained from adult male Wistar rats, and the tissues were blotted to dryness, weighed, sliced into pieces, and homogenised with ice-cold PBS (in 2 mL of buffer g^−1 of tissue) using the glass homogeniser. Then, tissue homogenates were centrifuged at 4,300 g for 1 hour (4° C.) and the supernatants collected. Glioblastoma cell homogenates were prepared using U-87 MG cells. Cells were cultured in Eagle's Minimum Essential Medium (EMEM) supplemented with 10% (v/v) heat-inactivated fetal bovine serum (FBS), 1% (v/v) of non-essential amino acids (NEAA) and 1 mM of sodium pyruvate in T75 flasks with a surface area of 75 cm^2 and maintained in a humidified atmosphere of 5% CO2 at 37° C. Breast cancer cell homogenates were prepared using MDA-MB-231 cells. Cells were cultured in Dulbecco's Modified Eagle Medium (DMEM) supplemented with high levels of glucose (4.5 g/L), 10% (v/v) heat-inactivated fetal bovine serum (FBS), 1% (v/v) of non-essential amino acids (NEAA) and penicillin and streptomycin (500 units/mL) in T75 flasks with a surface area of 75 cm^2 and maintained in a humidified atmosphere of 5% CO2 at 37° C. Media was changed for both cell lines every 3 to 4 days. After reaching confluence, cells were washed twice with Hank's Balanced Salt Solution (HBSS) and incubated with ˜2 mL of TrypLE Enzyme at 37° C. for ˜3 minutes. Then, complete media were added, and cells were centrifuged at 1,000 rpm for 5 minutes in C-28A centrifuge (Boeco, Germany). U-87 MG or MDA-MB-231 cells (˜10×10^6 cells mL^−1) were re-suspended in ice-cold PBS, and homogenised with a 2×5 second pulses with the probe sonicator (UP200S Ultrasonic processor, SciMed, 200 watts, amplitude of 60%). Cell debris were removed by centrifugation at 2,000 rpm for 5 minutes (Jouan B4i, Thermo Scientific, Paisley, UK). Supernatant was collected and stored at −80° C. Total protein concentration in the homogenates was determined using the Bradford assay with bovine serum albumin as a standard. Diluted plasma, tissue or cell homogenates were pre-warmed during ˜30 minutes at 37° C. Peptide stock solutions (Glu-GnRH, goserelin acetate and TPGnRH, 5 mM in PBS, 500 μL) were prepared and added to the homogenate solutions (120 μL). PAX-loaded nanofibers prepared at a ratio of 1:7.36 [PAX:TPGnRH consisting of 3 μmol (2.56 mg mL^−1) of PAX, 22.02 μmol (31.46 mg mL^−1) of TPGnRH], as previously described, and further diluted in PBS to achieve a concentration of 5 mM of TPGnRH and 500 nM of PAX (120 μL) were added to the homogenates. At various time intervals, an aliquot was collected (80 μL) and added to ice-cold ACN (80 μL) to quench the enzymatic activity. Samples were stored at −80° C. for at least 3 hours to maximise protein precipitation. Samples were vortexed for 15 minutes, centrifuged for 15 minutes at 12,000 rpm, and the supernatants were collected and analysed by RP-HPLC.

[3] = Critical aggregation concentration, thioflavin T assay; format: physicochemical; conditions: PBS pH 7.4
Protocol: Critical aggregation concentration (CAC) of TPGnRH was determined using pyrene ^1-4 and thioflavin T ^5, 6. The peptide solutions (3.5-700 μM) were prepared in phosphate-buffered saline (PBS, 0.01 M, pH 7.4) either by a dilution of a stock solution at 700 μM or solutions prepared at the required concentration. In the pyrene assay, pyrene was dissolved in methanol at 250 μM, dispersed into a black 96-well plate, and methanol was evaporated overnight. TPGnRH solutions were added to pyrene and incubated at 37° C. for 24 hours under stirring. Fluorescence spectra was recorded λex at 334 nm. For the thioflavin T assay, peptide solutions were added to freshly prepared thioflavin Tat 50 μM. All peptide samples were incubated during 5 minutes at room temperature and fluorescence was measured at λex at 450 nm and λem at 482 nm.
PAX:TPGnRH formulation at a molar ratio 1:7.36 was diluted in PBS (0.01 M, pH 7.4) from 22,000 to 7 μM of TPGnRH. Diluted formulations (20 μL) were added to 80 μL of Thioflavin T at 50 μM, incubated for 5 minutes at room temperature, and fluorescence was measured at λex 450 and λem 482 in a black 96-well plate using the Synergy H1 Microplate Reader (BioteK, Vermont, USA).

U-87 MG cells [4] = test: Cell proliferation (BrdU ELISA); format: cell-based, human; conditions: >7 μM, every two days, 6 days of treatment
Protocol: as §1

## CCCCCCCCCCCCCCCC(=O)Oc1ccc(C[C@H](NC(=O)[C@H](CO)NC(=O)[C@H](Cc2c[nH]c3ccccc23)NC(=O)[C@H](Cc2c[nH]cn2)NC(=O)[C@@H](N)CCC(=O)O)C(=O)NCC(=O)N[C@@H](CC(C)C)C(=O)N[C@@H](CCCNC(=N)N)C(=O)N2CCC[C@H]2C(=O)NCC(N)=O)cc1 [TPGnRH, Tyrosine (O-Palmitoyl)-Glu-GnRH]
U-87 MG cells [1]; >7 μM, every two days, 6 days of treatment
  effect on cell cycle: cell cycle arrest at the G2/M phase
U-87 MG cells [1]; day 6, TPGnRH alone at 35 μM or TPGnRH 4 days then one dose of PAX-loaded TPGnRH
  percentage of cells at G2/M: 21.81±3.98%
[2]; analyte in brackets of label
  Plateau: 359.3 µg/mL
  kα: 0.1678 min⁻¹
  kβ: 0.005339 min⁻¹
[2]; male, Wistar, rat
  remaining at 8 h, 4.03 mM: ~50%
[3]
  minimal CAC (self-assembly into long-axial nanofibers): 135 µM
U-87 MG cells [4]
  effect on cell proliferation: significant reduction in cell proliferation
